Measurements from patent US9359399B2, “Synthetic peptide amides” (Cara Therapeutics, Inc., priority 2006, dated 2016).
Square brackets hold non-standard residues; d marks the D form. Peptide text beside a SMILES is read from it. * marks the point of attachment. Piperidinyl(4-(1-Pro-OH)) = O=C(O)[C@@H]1CCCN1C1CCN(*)CC1; dDab = NCC[C@@H](N)C(=O)O

How the values were obtained:
[1] = Membrane permeability assay, Caco-2 TC7 monolayers, apical-to-basolateral (Cerep); details: human
CYP1A = test: Cytochrome P450 CYP1A inhibition in human liver microsomes (ethoxyresorufin); assay type: in vitro ADME; details: percent remaining CYP activity, 10 uM test compound, 15 minutes
Protocol: Inhibition of cytochrome P450 oxidase isozymes CYP1A, CYP2C9, CYP2C19, CYP2D6 and CYP3A4 by synthetic peptide amide compounds of the invention was determined according to the following methods performed by Cerep (Seattle, Wash.):
In the cytochrome P450 CYP1A assay, human liver microsomes (0.2 mg/ml protein) were incubated for 15 minutes at 37° C. with 10 uM test compound, 1 uM ethoxyresorufin, 1.3 mM NADP, 3.3 mM glucose-6-phosphate and 0.4 U/ml glucose-6-phosphate dehydrogenase. In the absence of test compound, the ethoxyresorufin added as substrate is oxidized to resorufin, and in the presence of an inhibitor of the CYP isozyme, the amount of resorufin produced is reduced. Furafylline was used as a reference inhibitor.
In each assay, the percent inhibition of the cytochrome P450 CYP P450 isozyme was determined as one hundred times the ratio of (1—the amount of product in the sample in the presence of the test compound) divided by the amount of product in the sample containing untreated isozyme.

CYP3A4 = CYP3A4 (Homo sapiens (Human), UniProt P08684); test: Cytochrome P450 CYP3A4 inhibition in human liver microsomes (midazolam); details: percent remaining CYP activity, 10 uM test compound, 20 minutes
CYP2C9 = CYP2C9 (Homo sapiens (Human), UniProt P11712); test: Cytochrome P450 CYP2C9 inhibition in human liver microsomes (tolbutamide); details: percent remaining CYP activity, 10 uM test compound, 15 minutes
CYP2C19 = CYP2C19 (Homo sapiens (Human), UniProt P33261); test: Cytochrome P450 CYP2C19 inhibition in human liver microsomes (omeprazole); details: percent remaining CYP activity, 10 uM test compound, 15 minutes
CYP2D6 = CYP2D6 (Homo sapiens (Human), UniProt P10635); test: Cytochrome P450 CYP2D6 inhibition in human liver microsomes (dextromethorphan); details: percent remaining CYP activity, 10 uM test compound, 15 minutes
[2] = system: acetic acid-induced writhing in mice; test: Acetic acid-induced writhing assay in mice; assay type: in vivo, ICR mice; details: ICR mice, administered subcutaneously
Protocol: 12: 525-562; Ramabadran and Bansinath (1986) Pharm. Res. 3: 263-270]. Intraperitoneal administration of dilute acetic acid solution causes a writhing behavior in mice. A writhe is defined as a contraction of the abdominal muscles accompanied by an extension of the forelimbs and elongation of the body. The number of writhes observed in the presence and absence of test compounds is counted to determine the analgesic activity of the compounds.
Each day a writhing assay was performed, a vehicle control group of mice (n=6-8) that were treated identically to the test group (except that test compound was omitted from the injection dose) was always included and the average total number of writhes in this group used as the absolute reference point defining 0% decrease in pain perception for all other mice receiving a test compound on that day. Specifically, the total number of writhes of each mouse receiving the test compound was converted to % decrease in pain perception according to the following equation:
[formula] Where Wv is the mean number of writhes in vehicle-treated group and Wc is the number of writhes in compound-treated mouse.
Male ICR mice, 23-37 grams in weight, were weighed and placed in individual observation chambers (usually a 4000 ml glass beaker) with a fine layer of SANI-CHIPS rodent bedding at the bottom. […] After administration of the compound or vehicle control, mice were returned to their individual observation chambers awaiting the intraperitoneal administration of acetic acid solution. […] and acetic acid injection, a dose corresponding to 10 ml/kg of a 0.6% (v/v) acetic acid solution was then injected into the right lower quadrant of the abdomen. Immediately after the injection, the mouse was returned to its observation chamber and the recording of the number of writhes begun immediately. The number of writhes was counted over a 15-min period starting from the time of acetic acid injection, the data being collected over three separate 5 minute time periods (0-5 min, 5-10 min, and 10-15 min).
The data were reported as ED50, and Hill coefficient. […] The Hill coefficient is expressed as the arithmetic mean±sem calculated from the values obtained from the animals.
For dose-response analysis, raw data were converted to % maximum possible effect (% MPE) using the formula: % MPE=((test score−vehicle-treated score)/(0−vehicle-treated score))*100. Raw data were analyzed using a one-way ANOVA followed by Dunnett's post-tests. […] Compounds were administered by the intravenous route.

[3] = Inhibition of locomotion in mice (locomotion reduction assay, sedation); parameters: species or system ICR mice; details: mouse, in vivo, sc, administered subcutaneously, sedative effect
Protocol: To determine the potential sedative effect of test compounds, the extent of locomotion reduction after the administration of the test compound or vehicle control can be determined and compared with a specialized apparatus designed for this purpose (Opto-Varimex Activity Meter). At the start of each experiment, each mouse was weighed and examined to determine good health. […] The subcutaneous injection was performed in the back of the neck of the mouse, pinched in a “tent” to allow proper access for the syringe needle. After injection, each animal was placed individually in Plexiglas boxes (43 cm×43 cm) inside the Opto-Varimex Activity Meter apparatus. Before the animal was placed in the apparatus, a thin layer of SANI-CHIPS rodent bedding was placed on the bottom of the Plexiglas box to provide a comfortable environment. Each Opto-Varimex Activity Meter apparatus was then turned on and data acquisition begun by the ATM3 Auto-Track System. The data were processed and results expressed in the same way as described for the writhing assay data in Example 47.
Inhibition of acetic acid-induced writhing by a compound is an indication of an analgesic effect (also called an antinociceptive effect). Similarly, a reduction in locomotion caused by administration of the compound can be used as a measure of its general sedative effect.

[4] = system: capsaicin-induced ocular pain; test: Capsaicin-induced ocular pain, palpebral opening in rabbits; assay type: in vivo, albino New Zealand strain rabbits; details: 10-30 min. post capsaicin
[5] = target: mouse kappa opioid receptor (mKOR) (Mus musculus (Mouse), UniProt P33534); test: cell-based; details: read-out: mKOR Efficacy(%)
[6] = Pharmacokinetics in ICR mice after subcutaneous injection; details: mouse, in vivo, sc, 1 mg/kg, time for plasma concentration to fall by 50% after maximum
Protocol: A single bolus of the synthetic peptide amide compound was administered by subcutaneous injection to ICR mice (n=6, males, body wt 23-37 g, Charles River, Wilmington, Mass.) and plasma samples taken at 5, 10, 15, 20, 30 60, 90, 120, and 180 minutes post-injection.
Quantitation was performed against a calibration curve of the analyte in blank Cynomolgus monkey plasma using the same internal standard. Data analysis and the extraction of pharmacokinetic parameters were performed with the program PK Solutions 2.0 (Summit Research Services, Ashland, Ohio, USA).

[7] = Pharmacokinetics in cynomolgus monkeys after intravenous bolus; details: cynomolgus monkey, in vivo
[8] = target: human kappa opioid receptor (hKOR) (Homo sapiens (Human), UniProt P41145); test: cell-based; details: HEK293, read-out: hKOR Efficacy(%)
in vitro = details: human, Caco-2

CN(C(=O)C(c1ccccc1)c1ccccc1)[C@H](CN1CC[C@H](O)C1)c1ccccc1 [Asimadoline, asimadoline, reference compound]
Papp A→B at 60 min, 10 uM [1]: 37.5 ×10⁻⁶ cm/s

CNCCCC[C@@H](NC(=O)[C@@H](CC(C)C)NC(=O)[C@@H](Cc1ccccc1)NC(=O)[C@H](N)Cc1ccccc1)C(=O)N1CCCN(C(=N)N)CC1 [Compound (1), D-Phe-D-Phe-D-Leu-(ε-Me)D-Lys-[4-Amidinohomopiperazine amide]]
Percent Activity of CYP1A (CYP1A): 89.8% | Percent Activity of CYP3A4 (CYP3A4): 92.5% | Percent Activity of CYP2C9 (CYP2C9): 93.2% | Percent Activity of CYP2C19 (CYP2C19): 98.5% | Percent Activity of CYP2D6 (CYP2D6): 96.0% | Papp A→B at 60 min, 10 uM [1]: < 0.1 ×10⁻⁶ cm/s

CNCCCC[C@@H](NC(=O)[C@@H](CC(C)C)NC(=O)[C@@H](Cc1ccccc1)NC(=O)[C@H](N)Cc1ccccc1)C(=O)N1CCC(N)(C(=O)O)CC1 [Compound (3), D-Phe-D-Phe-D-Leu-(ε-Me)D-Lys-[ω(4-aminopiperidine-4-carboxylic acid)]-OH]
Percent Activity of CYP1A (CYP1A): 93.1% | ED50 in the acetic acid-induced writhing assay [2]: 0.052 mg/kg | ED50 [3]: 2.69 mg/kg | Mean palpebral opening (% Control) ([4]; Table VII, 10 mg/ml, five animals): 76.0 % Control | Percent Activity of CYP3A4 (CYP3A4): 94.3% | Percent Activity of CYP2C9 (CYP2C9): 97.4% | Percent Activity of CYP2C19 (CYP2C19): 103.2% | Percent Activity of CYP2D6 (CYP2D6): 99.5% | Papp A→B at 60 min, 10 uM [1]: < 0.02 ×10⁻⁶ cm/s

CNCCCC[C@@H](NC(=O)[C@@H](CC(C)C)NC(=O)[C@@H](Cc1ccccc1)NC(=O)[C@H](N)Cc1ccccc1)C(=O)N1CCC(N2CCC[C@H]2C(=O)O)CC1 [Compound (6), D-Phe-D-Phe-D-Leu-(ε-Me)D-Lys-[N-(4-piperidinyl)-L-proline]-OH]
Emax [5]: 89% | Percent Activity of CYP1A (CYP1A): 89.5% | half-life [6]: 22 min | half-life [7]: 58.6 min | Percent Activity of CYP3A4 (CYP3A4): 93.6% | Percent Activity of CYP2C9 (CYP2C9): 92.1% | Percent Activity of CYP2C19 (CYP2C19): 97.2% | Percent Activity of CYP2D6 (CYP2D6): 93.9% | Papp A→B at 60 min, 10 uM [1]: < 0.02 ×10⁻⁶ cm/s

CC(C)C[C@@H](NC(=O)[C@@H](Cc1ccccc1)NC(=O)[C@H](N)Cc1ccccc1)C(=O)N[C@H](CCCCNC(C)C)C(=O)N1CCC(N)(C(=O)O)CC1 [Compound (9), D-Phe-D-Phe-D-Leu-(8-iPr)D-Lys-[ω(4-aminopiperidine-4-carboxylic acid)]-OH]
Emax [8]: 100%

CC(C)C[C@@H](NC(=O)[C@@H](Cc1ccccc1)NC(=O)[C@H](N)Cc1ccccc1)C(=O)N[C@H](CCN)C(=O)N1CCC(N2CCC[C@H]2C(=O)O)CC1 [Compound (12), D-Phe-D-Phe-D-Leu-D-Dbu4N-(4-piperidinyl)-L-prolinel-OH] (H-[dF][dF][dL][dDab]-{Piperidinyl(4-(1-Pro-OH))})
Emax [8]: 100%

COc1ccc([C@@H]2Sc3ccccc3N(CCN(C)C)C(=O)[C@@H]2OC(C)=O)cc1 [Diltiazem, diltiazem, reference compound]
Mean palpebral opening (% Control) ([4]; Table VII, 10 mM, five animals): 74.6 % Control | Mean palpebral opening (% Control) ([4]; Table VIII, 10 mM, ten animals): 77.6 % Control

CC(CCc1ccccc1)NCC(O)c1ccc(O)c(C(N)=O)c1 (stereo not drawn) [Labetalol, labetalol]
Papp A→B at 60 min, 10 uM (in vitro): 9.9 ×10⁻⁶ cm/s

CN1CC[C@]23c4c5ccc(O)c4O[C@H]2[C@@H](O)C=C[C@H]3[C@H]1C5 [Morphine, morphine, reference compound]
Mean palpebral opening (% Control) ([4]; Table VIII, 10 mg/ml, ten animals): 74.8 % Control

CC(C)NCC(O)COc1cccc2ccccc12 (stereo not drawn) [Propranolol, propranolol]
Papp A→B at 60 min, 10 uM (in vitro): 53.8 ×10⁻⁶ cm/s

CC[C@]1(O)C[C@@H]2CN(CCc3c([nH]c4ccccc34)[C@@](C(=O)OC)(c3cc4c(cc3OC)N(C)[C@H]3[C@@](O)(C(=O)OC)[C@H](OC(C)=O)[C@]5(CC)C=CCN6CC[C@]43[C@@H]65)C2)C1 [Vinblastine, vinblastine]
Papp A→B at 60 min, 10 uM (in vitro): < 0.2 ×10⁻⁶ cm/s
